Consider 55 molecules from PubChem BioAssay AID1259246 (Broad Institute, 2017).

Inconclusive results are not listed. Active and inactive are the calls of the source.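 How the source made its calls: active means valid dose-response fit whose half-maximal growth-inhibiting concentration is at or below a set limit above the top tested dose; inconclusive means flat fit with effect between 30 and 70%, or poor fit; inactive means half-maximal concentration above a set limit.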

One assay can be described thus: antibacterial activity against Clostridioides difficile – 10-point retest, dose response (AID 1259246). The settings on record: Clostridioides difficile clinical isolate growth, OD600, 24 h; at 60 µM (top of the series).
Regarding `C/C=C/c1ccc2c(c1)O[C@@H](CN(C)Cc1ccc(C(=O)O)cc1)[C@H](C)CN([C@H](C)CO)S2(=O)=O`, the activity change, negative = inhibition is 8.2% (inactive).
Same read-out and setting: in the case of `COCC#Cc1ccc2c(c1)O[C@H](CN(C)Cc1ccc3c(c1)OCO3)[C@H](C)CN([C@@H](C)CO)S2(=O)=O` it was 6.47% (inactive); in that of `CN(C)CC(=O)N1[C@H](C#N)[C@H](c2ccc(C#CC3CCCCC3)cc2)[C@H]1CO`, 6.71% (inactive); in that of `CO[C@H]1CN(C)C(=O)c2ccc(NC(=O)c3ccc(-c4ccccc4)cc3)cc2OC[C@@H](C)NC[C@@H]1C`, 12.9% (inactive).

Staying with this assay, now noted: Clostridioides difficile clinical isolate growth, OD600, 24 h; at 120 µM (top of the series).
Consider `C[C@H](CO)N1C[C@H](C)[C@H](CN(C)S(=O)(=O)c2ccc(F)cc2)OCCCC[C@H](C)Oc2ccc(NC(=O)Nc3cccc4ccccc34)cc2C1=O`, for which the activity change, negative = inhibition was 34.7% (inactive).
The same measure, in the same setting: the result for `C[C@@H]1CCCCO[C@H](CN(C)C(=O)CCC(F)(F)F)[C@H](C)CN([C@@H](C)CO)C(=O)c2cc(NC(=O)c3ccncc3)ccc2O1` reads 14.3% (inactive); that for `CNC[C@H]1Oc2c(N)cccc2C(=O)N([C@@H](C)CO)C[C@H]1C`, -0.016% (inactive); that for `C[C@@H]1CN([C@@H](C)CO)C(=O)c2cccc(NC(=O)Nc3ccc(C(F)(F)F)cc3)c2O[C@H]1CN(C)Cc1ccc(-c2ccccc2)cc1`, 20.3% (inactive).
The same measure, in the same setting: the result for `COc1ccc(CN(C)C[C@@H]2OCCCC[C@@H](C)Oc3ccc(NC(=O)Nc4cccc5ccccc45)cc3C(=O)N([C@H](C)CO)C[C@H]2C)cc1` reads 44.3% (inactive); that for `C[C@@H]1CN([C@H](C)CO)C(=O)c2cccc(NC(=O)Nc3ccccc3)c2O[C@@H]1CN(C)Cc1ccc(Oc2ccccc2)cc1`, 32.9% (inactive); that for `C[C@H]1CN([C@@H](C)CO)C(=O)Cc2cc(NC(=O)C3CC3)ccc2O[C@H]1CN(C)Cc1ccc(-c2ccccc2)cc1`, 18.3% (inactive).
`CO[C@H]1CN(C)C(=O)c2ccc(NC(=O)c3nc4ccccc4s3)cc2OC[C@@H](C)N(Cc2ccncc2)C[C@H]1C`: the activity change, negative = inhibition was 20.7% (inactive).
For the molecule `O=C(C[C@H]1C[C@H]2c3cc(NC(=O)C4CCC4)ccc3O[C@H]2[C@@H](CO)O1)NCc1ccc(Cl)cc1`, the activity change, negative = inhibition is 2.85% (inactive).
On to `Cc1cc(C(=O)Nc2cccc3c2O[C@H](CN(C)Cc2ccc(-c4ccccc4)cc2)[C@H](C)CN([C@@H](C)CO)C3=O)n(C)n1`, for which the activity change, negative = inhibition is 0.388% (inactive).
The same measure, in the same setting: in the case of `C[C@@H]1CN([C@H](C)CO)C(=O)c2cccc(NC(=O)Nc3ccc(C(F)(F)F)cc3)c2O[C@H]1CN(C)Cc1ccncc1` it was 56.1% (inactive); in that of `CO[C@@H]1CN(C)C(=O)c2ccc(NC(=O)C3CCC3)cc2OC[C@@H](C)N(Cc2ccncc2)C[C@H]1C`, -0.707% (inactive).
Turning to `C[C@@H]1CN([C@@H](C)CO)C(=O)Cc2cc(NC(=O)CCCN(C)C)ccc2O[C@H]1CN(C)Cc1ccc(C(F)(F)F)cc1`, the activity change, negative = inhibition is 23.8% (inactive).
Regarding `C[C@@H]1CN([C@H](C)CO)S(=O)(=O)c2ccc(C#Cc3ccccc3F)cc2O[C@@H]1CN(C)CC1CCOCC1`, the activity change, negative = inhibition is 19.4% (inactive).
`Cc1ccc(S(=O)(=O)N[C@@H]2CC[C@@H](CCNS(=O)(=O)Cc3ccccc3)O[C@H]2CO)cc1`: the activity change, negative = inhibition was -1.85% (inactive).
On to `C[C@@H]1CN([C@H](C)CO)S(=O)(=O)c2ccc(C3=CCCCC3)cc2O[C@H]1CN(C)Cc1ccccc1`, for which the activity change, negative = inhibition was 12.5% (inactive).
In the case of `C[C@H]1CN([C@@H](C)CO)C(=O)c2cccc(NC(=O)Nc3ccccc3)c2O[C@H]1CN(C)Cc1ccc(Oc2ccccc2)cc1`, the activity change, negative = inhibition is 24.3% (inactive).
Same read-out and setting: in the case of `O=C(C[C@@H]1C[C@@H]2c3cc(NC(=O)C4CCC4)ccc3O[C@@H]2[C@@H](CO)O1)NCc1ccc(Cl)cc1` it was -5.46% (inactive); in that of `C[C@@H]1CN([C@H](C)CO)C(=O)c2cccc(NC(=O)Nc3ccc(C(F)(F)F)cc3)c2O[C@H]1CN(C)S(=O)(=O)c1ccc(Cl)cc1`, 48.2% (inactive).
Turning to `C[C@@H]1CN([C@H](C)CO)C(=O)Cc2cc(NC(=O)C3CC3)ccc2O[C@@H]1CN(C)Cc1ccc(Oc2ccccc2)cc1`, the activity change, negative = inhibition was 22.6% (inactive).
On the same count and under the same terms, the result for `CO[C@@H]1CN(C)C(=O)c2ccc(NC(=O)c3ccc(-c4ccccc4)cc3)cc2OC[C@H](C)NC[C@@H]1C` reads 17% (inactive).
As for `C[C@@H]1CN([C@H](C)CO)C(=O)Cc2cc(NC(=O)C3CC3)ccc2O[C@@H]1CN(C)Cc1ccc(Cl)c(Cl)c1`, the activity change, negative = inhibition is 27.9% (inactive).
On the same count and under the same terms, the result for `C[C@@H]1CN([C@H](C)CO)C(=O)c2cccc(NC(=O)Nc3ccc(C(F)(F)F)cc3)c2O[C@@H]1CN(C)S(=O)(=O)c1ccc(Cl)cc1` reads 46.7% (inactive).
Take `Cc1ccc(S(=O)(=O)N2C[C@@H](O)COC[C@H]3O[C@H](CC(=O)NCc4ccccc4Cl)CC[C@@H]32)cc1`: the activity change, negative = inhibition is 13.4% (inactive).
For `C[C@@H]1CN([C@@H](C)CO)C(=O)c2cccc(NC(=O)Nc3ccccc3)c2O[C@H]1CN(C)Cc1ccc(Oc2ccccc2)cc1`, the activity change, negative = inhibition was 26.1% (inactive).
On the same count and under the same terms, in the case of `COc1ccc(CN(C)C[C@H]2Oc3ccc(NC(=O)C4CC4)cc3CC(=O)N([C@@H](C)CO)C[C@H]2C)cc1` it was -3.18% (inactive).
The same measure, in the same setting: the result for `C[C@H]1CN([C@@H](C)CO)C(=O)c2cccc(NC(=O)Nc3ccc4c(c3)OCO4)c2O[C@@H]1CN(C)Cc1ccc(-c2ccccc2)cc1` reads 2.11% (inactive); that for `N#C[C@H]1[C@H](c2ccc(C#Cc3ccccc3F)cc2)[C@@H](CO)N1C(=O)C1CCCCC1`, 24.9% (inactive); that for `CC(C)CC#Cc1ccc2c(c1)O[C@@H](CN(C)Cc1ccccc1)[C@H](C)CN([C@@H](C)CO)S2(=O)=O`, 32.1% (inactive).
Turning to `O=C(C[C@@H]1C[C@@H]2c3cc(NC(=O)Nc4ccccc4)ccc3O[C@@H]2[C@@H](CO)O1)NC1CCCC1`, the activity change, negative = inhibition was 2.79% (inactive).
The same measure, in the same setting: the result for `CO[C@H]1CN(C)C(=O)c2cc(NC(=O)c3ccc(-c4ccccc4)cc3)ccc2OC[C@H](C)NC[C@H]1C` reads 25.8% (inactive).
On the same count and under the same terms, in the case of `O=C(C[C@H]1C[C@H]2c3cc(NC(=O)Nc4ccccc4)ccc3O[C@H]2[C@H](CO)O1)NC1CCCC1` it was -1.4% (inactive).
Same read-out and setting: the result for `COc1ccc(S(=O)(=O)Nc2cccc3c2O[C@@H](CN(C)S(=O)(=O)c2c(C)noc2C)[C@H](C)CN([C@H](C)CO)C3=O)cc1` reads -3.81% (inactive); that for `CCCC#Cc1ccc2c(c1)O[C@H](CN(C)Cc1ccc3c(c1)OCO3)[C@H](C)CN([C@@H](C)CO)S2(=O)=O`, 25.5% (inactive).
For `CCCC#Cc1ccc2c(c1)O[C@H](CN(C)Cc1ccc3c(c1)OCO3)[C@H](C)CN([C@H](C)CO)S2(=O)=O`, the activity change, negative = inhibition is 33% (inactive).
With `CO[C@@H]1CN(C)C(=O)c2cc(NC(=O)c3ccc(-c4ccccc4)cc3)ccc2OC[C@H](C)NC[C@@H]1C`, the activity change, negative = inhibition was 31.8% (inactive).
Same read-out and setting: the result for `CNC[C@@H]1Oc2cc(C#CCC(C)C)ccc2S(=O)(=O)N([C@@H](C)CO)C[C@H]1C` reads 21.5% (inactive); that for `CO[C@@H]1CN(C)C(=O)c2ccc(NC(=O)c3nc4ccccc4s3)cc2OC[C@H](C)N(Cc2ccncc2)C[C@@H]1C`, 10.8% (inactive); that for `CC(C)CC#Cc1ccc2c(c1)O[C@H](CN(C)CC1CCOCC1)[C@H](C)CN([C@@H](C)CO)S2(=O)=O`, 15.6% (inactive).
Regarding `C[C@H]1CN([C@@H](C)CO)S(=O)(=O)c2ccc(C#CC3CCCCC3)cc2O[C@H]1CN(C)Cc1cccnc1`, the activity change, negative = inhibition was 19.1% (inactive).
Consider `C[C@H]1CN([C@@H](C)CO)C(=O)Cc2cc(NC(=O)CCCN(C)C)ccc2O[C@H]1CN(C)Cc1ccc(-c2ccccc2)cc1`, for which the activity change, negative = inhibition is 20.8% (inactive).
The same measure, in the same setting: the result for `COc1ccc(NC(=O)Nc2cccc3c2O[C@@H](CN(C)Cc2ccc(Oc4ccccc4)cc2)[C@H](C)CN([C@@H](C)CO)C3=O)cc1` reads 18.2% (inactive); that for `COc1ccc(-c2ccc([C@H]3[C@H](C#N)N(C(=O)c4cccc(F)c4)[C@H]3CO)cc2)cc1`, 21.7% (inactive); that for `C[C@H]1CN([C@@H](C)CO)S(=O)(=O)c2ccc(C#CC3CCCCC3)cc2O[C@@H]1CN(C)Cc1cccnc1`, 20.8% (inactive).
As for `C[C@H](CO)N1C[C@H](C)[C@@H](CN(C)Cc2ccc(-c3ccccc3)cc2)Oc2ccc(NC(=O)C3CC3)cc2CC1=O`, the activity change, negative = inhibition was 25.6% (inactive).

The assay is the same for the next values; noted with them: Clostridioides difficile clinical isolate growth, OD600, 24 h; at 135 µM (top of the series).
With `CO[C@H]1CN(C)C(=O)c2cc(NC(=O)c3ccc(-c4ccccc4)cc3)ccc2OC[C@H](C)NC[C@@H]1C`, the activity change, negative = inhibition was 34.1% (inactive).
On to `C[C@@H]1CN([C@H](C)CO)C(=O)Cc2cc(NC(=O)CCC(F)(F)F)ccc2O[C@H]1CN(C)Cc1ccc(-c2ccccc2)cc1`, for which the activity change, negative = inhibition was 15.9% (inactive).
For the molecule `C[C@@H]1CN([C@H](C)CO)C(=O)c2cccc(NC(=O)Nc3ccc4c(c3)OCO4)c2O[C@@H]1CN(C)Cc1ccc(-c2ccccc2)cc1`, the activity change, negative = inhibition was 12.1% (inactive).
On the same count and under the same terms, the result for `CO[C@H]1CN(C)C(=O)c2cc(NC(=O)c3ccc(-c4ccccc4)cc3)ccc2OC[C@H](C)NC[C@H]1C` reads 102% (inactive); that for `Cc1ccc(S(=O)(=O)N[C@H]2CC[C@@H](CCNS(=O)(=O)Cc3ccccc3)O[C@H]2CO)cc1`, 3.07% (inactive).
Consider `C[C@@H]1CN([C@H](C)CO)C(=O)Cc2cc(NS(C)(=O)=O)ccc2O[C@@H]1CN(C)Cc1ccc(-c2ccccc2)cc1`, for which the activity change, negative = inhibition is 20% (inactive).
Same read-out and setting: the result for `C[C@@H]1CN([C@@H](C)CO)C(=O)Cc2cc(NC(=O)CCCN(C)C)ccc2O[C@@H]1CN(C)Cc1ccc(Oc2ccccc2)cc1` reads 18% (inactive).
